In PubChem BioAssay (NCI):
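Protocol summary: plate cells (96-well), add compound at 5 concentrations, incubate 48 h, interpolate endpoints linearly. GI50 marks 50% less growth. TGI marks complete inhibition of growth.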

Tests used:
Assay in all cases: inhibition of tumour cell growth, NCI panel, 48 h
T-47D breast = test system: T-47D breast
K-562 leukemia = test system: K-562 leukemia
BT-549 breast = test system: BT-549 breast
SF-539 CNS = test system: SF-539 CNS
HOP-92 NSCLC = test system: HOP-92 NSCLC
LOX IMVI melanoma = test system: LOX IMVI melanoma
NCI-H23 lung = test system: NCI-H23 lung
CCRF-CEM leukemia = test system: CCRF-CEM leukemia
A549 NSCLC = test system: A549 NSCLC
OVCAR-4 ovarian = test system: OVCAR-4 ovarian

Structure (SMILES)	GI50 (T-47D breast)	TGI (T-47D breast)	GI50 (K-562 leukemia)	TGI (K-562 leukemia)	GI50 (BT-549 breast)	TGI (BT-549 breast)	GI50 (SF-539 CNS)	TGI (SF-539 CNS)	GI50 (HOP-92 NSCLC)	TGI (HOP-92 NSCLC)	GI50 (LOX IMVI melanoma)	TGI (LOX IMVI melanoma)	GI50 (NCI-H23 lung)	TGI (NCI-H23 lung)	GI50 (CCRF-CEM leukemia)	TGI (CCRF-CEM leukemia)	GI50 (A549 NSCLC)	TGI (A549 NSCLC)	GI50 (OVCAR-4 ovarian)	TGI (OVCAR-4 ovarian)
COc1cc([C@@H]2c3cc4c(cc3C(O[C@@H]3O[C@@H]5CO[C@@H](c6cccs6)OC5[C@H](O)[C@H]3O)C3COC(=O)[C@@H]32)OCO4)cc(OC)c1O (some centres undefined)	0.0207 µM	0.434 µM	0.111 µM	19.3 µM	0.0878 µM	1.31 µM	0.0268 µM	0.199 µM	0.0461 µM	1.25 µM	0.017 µM	0.911 µM	0.0288 µM	0.482 µM	0.00941 µM	0.175 µM	0.0209 µM	0.822 µM	0.401 µM	3.95 µM
COc1ccc(-n2cc(-c3cc(OC)c(OC)c(OC)c3)[nH]c2=S)cc1OC	> 100 µM	> 100 µM	> 100 µM	> 100 µM	> 100 µM	> 100 µM	> 100 µM	> 100 µM	> 100 µM	> 100 µM	> 100 µM	> 100 µM	> 100 µM	> 100 µM	> 100 µM	> 100 µM	> 100 µM	> 100 µM	> 100 µM	> 100 µM
C=C1C(=O)O[C@H]2[C@H]1CC/C(COC(=O)/C=C\C(=O)NCc1ccc(Cn3c(=O)sn(-c4ccc(C#N)cc4)c3=O)cc1)=C\CC[C@@]1(C)O[C@@H]21	0.836 µM	2.18 µM	0.707 µM	50 µM	0.697 µM	1.65 µM	0.753 µM	1.43 µM	0.622 µM	1.45 µM	0.437 µM	1.16 µM	0.861 µM	1.81 µM	0.2 µM	17.9 µM	0.916 µM	2.42 µM	0.672 µM	1.37 µM
CNC1C(=O)C(C)C(O)(C(CC(C)C(O)/C=C/C=C/CNC(=O)C(C)(C)C(O)\C(C)=C/C=C\C=C\Cc2cnc(C)o2)OC)C12C(=O)OC2COC (centres undefined) (tested in a mixture with another compound)	–	> 93.3 µM	–	5.42 µM	–	> 100 µM	–	67 µM	–	> 51.3 µM	–	31.5 µM	–	> 60.7 µM	–	38.5 µM	–	> 100 µM	–	> 100 µM
NCCCCn1c2c(c3ccccc3c1=O)C(=O)c1ccccc1-2	0.631 µM	6.81 µM	0.168 µM	–	0.754 µM	2.5 µM	0.102 µM	0.462 µM	0.0363 µM	0.535 µM	0.0269 µM	0.346 µM	0.129 µM	0.655 µM	0.0195 µM	1.6 µM	0.0263 µM	0.361 µM	0.542 µM	5.08 µM
CCOC(=O)c1c(C)n(Cc2ccc(OC)cc2)c2c1cc(O)c1[nH]c3c(c12)CCCC3	2.02 µM	38.8 µM	5.22 µM	> 100 µM	4.21 µM	27.8 µM	2.76 µM	7.07 µM	2.5 µM	55.4 µM	3.91 µM	16.6 µM	1.9 µM	13.3 µM	4.22 µM	> 100 µM	8.71 µM	71.9 µM	15.6 µM	88.6 µM
O=C(CCCSc1nc(-c2ccc(Cl)cc2)cc(-c2ccc(Cl)cc2)n1)NO	1.37 µM	16.7 µM	0.727 µM	> 100 µM	3.21 µM	18.6 µM	1.26 µM	4.93 µM	2.51 µM	11.7 µM	0.222 µM	1.44 µM	1.63 µM	10.4 µM	0.517 µM	> 100 µM	1.59 µM	12.4 µM	0.603 µM	14.1 µM
CCCCNC(=O)NS(=O)(=O)c1ccc(N2N=C(c3ccc(C)cc3C)CC2c2ccc(N(C)C)cc2)cc1 (centres undefined)	5.16 µM	> 100 µM	3.58 µM	> 100 µM	4.11 µM	37.1 µM	3.22 µM	14 µM	2.39 µM	31.4 µM	4.4 µM	16.5 µM	4.92 µM	> 100 µM	3.32 µM	46.7 µM	3.2 µM	> 100 µM	5.41 µM	> 100 µM
O=c1[nH]c(=O)n(C2CC(O)C(CS)O2)cc1F (centres undefined)	–	> 100 µM	–	> 100 µM	–	> 100 µM	–	> 90.2 µM	–	> 96.7 µM	–	> 100 µM	–	> 100 µM	–	> 100 µM	–	> 100 µM	–	> 100 µM
COc1ccc(C2CC(=O)c3c(O)c(OC)c(OC)c(OC)c3O2)c(O)c1 (centres undefined)	0.113 µM	24.6 µM	0.0378 µM	26.2 µM	0.221 µM	20.5 µM	0.14 µM	9.39 µM	0.0574 µM	13.9 µM	0.432 µM	19.2 µM	0.392 µM	18.6 µM	0.134 µM	31.5 µM	0.41 µM	28.8 µM	1.18 µM	66.9 µM
